Measured values taken from US20200392158A1, “INHIBITORS OF LEUCINE RICH REPEAT KINASE 2” (GLAXOSMITHKLINE INTELLECTUAL PROPERTY DEVELOPMENT LIMITED, priority 2017, published 2020).

Experiments:
[1] = molecular target: T1, LRRK2 kinase in SH-SY5Y cells over-expressing recombinant full length LRRK2 (Homo sapiens, UniProt Q5S007); assay: Recombinant cellular LRRK2 AlphaScreen assay (LRRK2 Ser935 phosphorylation); format: cell-based; conditions: 60 min
T1 construct: A BacMam virus expressing full length recombinant LRRK2 was purchased from Invitrogen; host or cells: SH-SY5Y human neuroblastoma cells transduced with BacMam LRRK2 virus
Procedure, shortened: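 Read-out is AlphaScreen of LRRK2 pSer935 over total LRRK2 in lysates of SH-SY5Y cells over-expressing full-length LRRK2 via BacMam (24 h transduction). Cells were exposed 60 min at 37 °C to an 11-point 1-in-4 dilution series starting at 10 uM; sigmoidal fit.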

[2] = molecular target: T2, full length G2019 human LRRK2 (Homo sapiens, UniProt Q5S007, R50H); assay: Full length G2019 human LRRK2 inhibition mass spectrometry assay; format: biochemical; conditions: LRRKtide to phospho-LRRKtide conversion, RapidFire MS, 2 mM ATP
T2 construct: made in house; host or cells: HEK293 6E cells transduced with BacMam virus (virus generated in Sf9 cells)
Procedure, shortened: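 Inhibition taken as reduced LRRKtide phosphorylation, quantified by RapidFire-coupled triple-quadrupole MS as product/(product+substrate) peak area. Reaction: 2 mM ATP, 25 μM peptide, ~25 nM full-length G2019 Flag-LRRK2, Hepes pH 7.2 buffer, room temperature for 1 h. 11-point 1-in-4 dilutions from 100 μM; logistic fit gives IC50, reported as pIC50.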

T2 sequence (Q5S007 with tags, fused parts or gaps R50H): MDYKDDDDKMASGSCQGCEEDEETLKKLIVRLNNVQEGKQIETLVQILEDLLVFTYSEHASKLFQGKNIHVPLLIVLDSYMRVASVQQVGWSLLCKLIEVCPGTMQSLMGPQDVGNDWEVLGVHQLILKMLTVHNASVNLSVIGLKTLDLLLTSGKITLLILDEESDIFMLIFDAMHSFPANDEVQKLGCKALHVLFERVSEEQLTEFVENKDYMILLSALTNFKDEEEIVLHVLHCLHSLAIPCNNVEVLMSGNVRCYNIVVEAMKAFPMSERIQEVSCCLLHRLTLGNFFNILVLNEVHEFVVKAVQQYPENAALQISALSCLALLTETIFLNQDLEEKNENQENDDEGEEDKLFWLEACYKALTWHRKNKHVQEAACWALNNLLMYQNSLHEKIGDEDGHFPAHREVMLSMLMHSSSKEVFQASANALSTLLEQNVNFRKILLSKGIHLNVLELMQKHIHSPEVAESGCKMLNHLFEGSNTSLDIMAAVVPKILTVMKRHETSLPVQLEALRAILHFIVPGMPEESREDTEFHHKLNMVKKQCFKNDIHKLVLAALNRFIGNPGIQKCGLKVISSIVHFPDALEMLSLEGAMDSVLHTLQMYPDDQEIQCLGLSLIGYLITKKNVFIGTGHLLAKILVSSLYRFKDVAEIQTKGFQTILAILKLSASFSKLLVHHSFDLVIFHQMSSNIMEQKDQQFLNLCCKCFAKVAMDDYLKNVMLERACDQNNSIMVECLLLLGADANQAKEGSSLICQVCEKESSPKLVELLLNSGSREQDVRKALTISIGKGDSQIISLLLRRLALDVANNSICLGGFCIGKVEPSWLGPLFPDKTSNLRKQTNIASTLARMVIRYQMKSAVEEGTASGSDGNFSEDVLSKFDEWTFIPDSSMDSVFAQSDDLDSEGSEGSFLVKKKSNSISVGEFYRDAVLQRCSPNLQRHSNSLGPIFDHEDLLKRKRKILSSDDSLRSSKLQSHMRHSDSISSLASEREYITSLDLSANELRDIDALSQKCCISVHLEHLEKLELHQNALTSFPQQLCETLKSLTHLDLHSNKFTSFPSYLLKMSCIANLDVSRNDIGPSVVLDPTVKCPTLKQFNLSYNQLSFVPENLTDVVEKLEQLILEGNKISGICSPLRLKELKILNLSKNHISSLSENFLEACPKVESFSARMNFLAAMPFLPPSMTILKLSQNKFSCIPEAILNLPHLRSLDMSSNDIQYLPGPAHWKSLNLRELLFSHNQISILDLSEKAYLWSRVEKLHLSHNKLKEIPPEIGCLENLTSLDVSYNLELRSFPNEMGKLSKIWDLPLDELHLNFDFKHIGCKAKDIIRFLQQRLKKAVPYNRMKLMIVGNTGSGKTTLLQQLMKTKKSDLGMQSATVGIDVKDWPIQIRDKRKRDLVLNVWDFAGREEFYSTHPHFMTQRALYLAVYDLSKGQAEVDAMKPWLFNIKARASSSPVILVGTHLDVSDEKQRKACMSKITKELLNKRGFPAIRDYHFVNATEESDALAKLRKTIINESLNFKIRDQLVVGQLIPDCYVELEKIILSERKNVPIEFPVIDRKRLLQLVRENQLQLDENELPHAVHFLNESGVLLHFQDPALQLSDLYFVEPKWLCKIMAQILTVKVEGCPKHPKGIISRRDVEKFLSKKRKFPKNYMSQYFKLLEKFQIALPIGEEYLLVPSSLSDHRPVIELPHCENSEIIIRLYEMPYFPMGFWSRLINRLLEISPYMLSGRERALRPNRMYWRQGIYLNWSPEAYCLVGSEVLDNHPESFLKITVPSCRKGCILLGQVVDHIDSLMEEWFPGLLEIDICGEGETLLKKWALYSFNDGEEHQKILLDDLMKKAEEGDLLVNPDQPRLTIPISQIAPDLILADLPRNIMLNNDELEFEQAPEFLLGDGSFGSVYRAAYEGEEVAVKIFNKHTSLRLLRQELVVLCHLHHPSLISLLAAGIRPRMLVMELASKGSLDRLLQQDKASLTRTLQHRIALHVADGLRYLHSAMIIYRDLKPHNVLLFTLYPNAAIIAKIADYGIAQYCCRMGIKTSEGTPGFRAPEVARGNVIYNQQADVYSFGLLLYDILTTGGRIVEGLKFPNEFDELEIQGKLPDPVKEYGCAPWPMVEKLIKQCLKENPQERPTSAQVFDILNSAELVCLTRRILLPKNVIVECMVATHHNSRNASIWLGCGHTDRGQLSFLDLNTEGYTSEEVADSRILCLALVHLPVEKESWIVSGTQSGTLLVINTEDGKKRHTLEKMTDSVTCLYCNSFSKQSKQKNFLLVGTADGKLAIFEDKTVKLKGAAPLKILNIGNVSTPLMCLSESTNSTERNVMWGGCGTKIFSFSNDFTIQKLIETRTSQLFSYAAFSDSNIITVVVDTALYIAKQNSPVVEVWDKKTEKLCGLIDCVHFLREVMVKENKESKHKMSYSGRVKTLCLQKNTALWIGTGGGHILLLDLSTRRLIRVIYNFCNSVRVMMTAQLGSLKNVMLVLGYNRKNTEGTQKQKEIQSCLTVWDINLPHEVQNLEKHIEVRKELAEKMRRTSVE
T1 sequence (Q5S007 whole entry): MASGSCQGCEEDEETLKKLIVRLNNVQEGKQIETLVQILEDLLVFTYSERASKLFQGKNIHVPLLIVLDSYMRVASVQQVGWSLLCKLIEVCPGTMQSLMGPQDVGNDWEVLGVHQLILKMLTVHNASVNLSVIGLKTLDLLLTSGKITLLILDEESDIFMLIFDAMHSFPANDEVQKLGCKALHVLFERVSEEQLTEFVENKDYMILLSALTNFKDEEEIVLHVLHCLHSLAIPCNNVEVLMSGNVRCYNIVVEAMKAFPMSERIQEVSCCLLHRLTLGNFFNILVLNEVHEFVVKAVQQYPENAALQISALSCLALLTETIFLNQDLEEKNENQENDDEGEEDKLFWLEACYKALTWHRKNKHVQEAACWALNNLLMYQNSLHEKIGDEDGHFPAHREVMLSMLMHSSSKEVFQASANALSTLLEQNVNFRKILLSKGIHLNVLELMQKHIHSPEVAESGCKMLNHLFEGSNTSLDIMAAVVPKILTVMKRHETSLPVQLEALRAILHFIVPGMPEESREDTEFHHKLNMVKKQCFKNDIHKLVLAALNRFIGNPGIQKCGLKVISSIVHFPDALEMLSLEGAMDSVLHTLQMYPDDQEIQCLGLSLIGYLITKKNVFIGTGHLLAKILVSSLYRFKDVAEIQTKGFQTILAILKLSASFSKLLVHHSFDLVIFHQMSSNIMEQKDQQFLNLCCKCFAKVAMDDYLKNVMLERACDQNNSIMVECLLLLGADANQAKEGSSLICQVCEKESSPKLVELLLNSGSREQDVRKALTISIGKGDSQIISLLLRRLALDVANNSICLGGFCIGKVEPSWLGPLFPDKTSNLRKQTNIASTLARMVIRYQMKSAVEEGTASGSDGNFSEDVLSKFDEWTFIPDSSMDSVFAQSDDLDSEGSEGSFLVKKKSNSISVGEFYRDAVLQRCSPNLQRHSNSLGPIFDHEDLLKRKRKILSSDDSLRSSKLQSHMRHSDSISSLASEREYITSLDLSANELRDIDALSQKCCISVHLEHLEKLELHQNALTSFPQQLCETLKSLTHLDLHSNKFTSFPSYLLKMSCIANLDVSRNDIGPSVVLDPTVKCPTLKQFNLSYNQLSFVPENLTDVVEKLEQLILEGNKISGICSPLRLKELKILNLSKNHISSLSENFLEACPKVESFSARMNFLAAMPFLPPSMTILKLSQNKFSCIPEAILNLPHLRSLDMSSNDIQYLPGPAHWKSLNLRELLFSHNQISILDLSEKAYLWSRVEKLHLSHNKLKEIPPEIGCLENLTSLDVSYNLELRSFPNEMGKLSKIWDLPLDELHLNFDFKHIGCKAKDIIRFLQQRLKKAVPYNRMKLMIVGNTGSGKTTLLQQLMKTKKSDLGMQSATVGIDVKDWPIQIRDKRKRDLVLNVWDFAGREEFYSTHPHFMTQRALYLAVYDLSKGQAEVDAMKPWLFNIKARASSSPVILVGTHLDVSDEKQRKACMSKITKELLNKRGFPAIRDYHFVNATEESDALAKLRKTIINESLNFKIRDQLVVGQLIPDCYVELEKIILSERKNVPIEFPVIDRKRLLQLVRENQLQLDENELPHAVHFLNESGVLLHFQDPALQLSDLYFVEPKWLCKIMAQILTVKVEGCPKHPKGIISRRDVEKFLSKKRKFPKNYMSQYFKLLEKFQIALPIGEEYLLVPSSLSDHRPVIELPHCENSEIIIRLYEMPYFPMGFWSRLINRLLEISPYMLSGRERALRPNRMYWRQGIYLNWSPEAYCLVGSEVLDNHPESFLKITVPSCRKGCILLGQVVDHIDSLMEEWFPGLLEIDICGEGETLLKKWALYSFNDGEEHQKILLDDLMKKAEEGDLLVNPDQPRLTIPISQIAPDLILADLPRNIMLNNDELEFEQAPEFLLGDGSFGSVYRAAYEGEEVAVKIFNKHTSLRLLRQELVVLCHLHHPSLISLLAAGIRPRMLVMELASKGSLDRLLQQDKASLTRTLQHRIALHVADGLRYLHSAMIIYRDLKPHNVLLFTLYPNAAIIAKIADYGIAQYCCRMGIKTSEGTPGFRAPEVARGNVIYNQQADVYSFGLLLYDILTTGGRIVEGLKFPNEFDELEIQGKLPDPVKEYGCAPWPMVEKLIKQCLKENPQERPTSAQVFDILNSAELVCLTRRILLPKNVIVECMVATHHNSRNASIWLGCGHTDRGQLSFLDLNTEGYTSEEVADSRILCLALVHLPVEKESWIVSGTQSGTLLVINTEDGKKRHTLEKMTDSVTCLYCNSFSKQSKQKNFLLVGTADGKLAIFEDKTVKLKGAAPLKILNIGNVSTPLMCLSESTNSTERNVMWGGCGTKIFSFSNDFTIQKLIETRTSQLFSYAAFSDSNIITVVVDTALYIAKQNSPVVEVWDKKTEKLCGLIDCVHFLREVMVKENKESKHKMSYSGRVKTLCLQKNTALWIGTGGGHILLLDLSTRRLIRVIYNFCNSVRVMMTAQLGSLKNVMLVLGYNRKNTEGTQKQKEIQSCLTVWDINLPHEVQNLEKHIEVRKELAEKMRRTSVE

Structure (SMILES) | IC50 [1] [nM] | IC50 [2] [nM]
Cc1c2c(nn1C1CCN(C3COC3)CC1)OCC[C@@H](C)Nc1nc(ncc1Cl)N2 [E65, (11R)-14-chloro-4,11-dimethyl-5-[1-(oxetan-3-yl)piperidin-4-yl]-8-oxa-2,5,6,12,16,17-hexaazatricyclo[11.3.1.0^3,7]heptadeca-1(16),3,6,13(17),14-pentaene] | ≤ 100 | ≤ 100
Cc1c2c(nn1C1CC(N3CCOCC3)C1)OCC[C@@H](C)Nc1nc(ncc1Cl)N2 (stereo partly drawn) [E106, (11R)-14-chloro-4,11-dimethyl-5-[3-(morpholin-4-yl)cyclobutyl]-8-oxa-2,5,6,12,16,17-hexaazatricyclo[11.3.1.0^3,7]heptadeca-1(16),3,6,13(17),14-pentaene] | ≤ 100 | ≤ 100
Cc1c2c(nn1C1CCOCC1)OCCCOc1nc(ncc1Cl)N2 [E110, 14-Chloro-4-methyl-5-(oxan-4-yl)-8,12-dioxa-2,5,6,16,17-pentaazatricyclo[11.3.1.0^3,7]heptadeca-1(16),3,6,13(17),14-pentaene] | ≤ 100 | ≤ 100
FC(F)c1c2c(nn1C1CCOCC1)OCCCNc1nc(ncc1Cl)N2 [E112, 4-Chloro-4-(difluoromethyl)-5-(oxan-4-yl)-8-oxa-2,5,6,12,16,17-hexaazatricyclo[11.3.1.0^3,7]heptadeca-1(16),3,6,13(17),14-pentaene] | ≤ 100 | ≤ 100
Cc1c2c(nn1C1CCOCC1)OCCCOc1nc(ncc1C(F)(F)F)N2 [E117, 4-Methyl-5-(oxan-4-yl)-14-(trifluoromethyl)-8,12-dioxa-2,5,6, 16,17-pentaazatricyclo[11.3.1.0^3,7]heptadeca-1(16),3,6,13(17),14-pentaene] | ≤ 100 | ≤ 100
FC(F)(F)c1cnc2nc1NCCCOc1nn(C3CCCOC3)cc1N2 (centres unmarked) [E130, 5-(Oxan-3-yl)-14-(trifluoromethyl)-8-oxa-2,5,6,12,16,17-hexaaza tricyclo[11.3.1.0^3,7]heptadeca-1(16),3,6,13(17),14-pentaene] | ≤ 100 | ≤ 100
Cc1c2c(nn1C1CCOCC1)OCCCNc1cc(ncc1Cl)N2 [E134, 14-Chloro-4-methyl-5-(oxan-4-yl)-8-oxa-2,5,6,12,16-pentaaza tricyclo[11.3.1.0^3,7]heptadeca-1(16),3,6,13(17),14-pentaene] | ≤ 100 | ≤ 100
CCOC(=O)C(C)(C)n1nc2c(c1C)Nc1ncc(Cl)c(n1)NCCCO2 [E188] | ≤ 100 | ≤ 100
Cc1c2c(nn1C(C)(C)C(=O)O)OCCCNc1nc(ncc1Cl)N2 [E189, 2-{14-Chloro-4-methyl-8-oxa-2,5,6,12,16,17-hexaazatricyclo [11.3.1.0^3,7]heptadeca-1(16),3,6,13(17),14-pentaen-5-yl}-2-methylpropanoic acid] | > 10000 | ≤ 10000
Cc1c2c(nn1C(C)(C)C#N)OCCCNc1nc(ncc1Cl)N2 [E191, 2-{14-Chloro-4-methyl-8-oxa-2,5,6,12,16,17-hexaazatricyclo [11.3.1.0^3,7]heptadeca-1(16),3,6,13(17),14-pentaen-5-yl}-2-methylpropanenitrile] | ≤ 100 | ≤ 100
Cc1c2c(nn1CC(F)(F)F)OCCCNc1nc(ncc1Cl)N2 [E266, 14-Chloro-4-methyl-5-(2,2,2-trifluoroethyl)-8-oxa-2,5,6,12,16,17-hexaazatricyclo[11.3.1.0^3,7]heptadeca-1(16),3,6,13(17),14-pentaene] | ≤ 100 | ≤ 100
Cc1c2c(nn1C1CC3(COC3)C1)OCC[C@@H](C)Nc1nc(ncc1Cl)N2 [E301, (11R)-14-Chloro-4,11-dimethyl-5-{2-oxaspiro[3.3]heptan-6-yl}-8-oxa-2,5,6,12,16,17-hexaazatricyclo[11.3.1.0^3,7]heptadeca-1(17),3,6,13,15-pentaene] | ≤ 100 | ≤ 100
Cc1c2c(nn1C1CC(N3C[C@H]4C[C@@H]3CO4)C1)OCC[C@@H](C)Nc1nc(ncc1Cl)N2 (stereo partly drawn) [E317, (11R)-14-Chloro-4,11-dimethyl-5-{3-[(1R,4R)-2-oxa-5-azabicycle [2.2.1]heptan-5-yl]cyclobutyl}-8-oxa-2,5,6,12,16,17-hexaaza tricyclo[11.3.1.0^3,7]heptadeca-1(16),3,6,13(17),14-pentaene] | ≤ 100 | ≤ 100
Cc1c2c(nn1C1CN(C3CCOCC3)C1)OCC[C@@H](C)Nc1nc(ncc1Cl)N2 [E365, (11R)-14-Chloro-4,11-dimethyl-5-[1-(oxan-4-yl)azetidin-3-yl]-8-oxa-2,5,6,12,16,17-hexaazatricyclo[11.3.1.0^3,7]heptadeca-1(16), 3,6,13(17),14-pentaene] | ≤ 100 | ≤ 100
Cc1c2c(nn1C1CC(O)C1)OCC[C@@H](C)Nc1nc(ncc1Cl)N2 (stereo partly drawn) [E375, 3-[(11R)-14-Chloro-4,11-dimethyl-8-oxa-2,5,6,12,16,17-hexaazatricyclo[11.3.1.0^3,7]heptadeca-1(16),3,6,13(17),14-pentaen-5-yl]cyclobutan-1-ol] | ≤ 100 | ≤ 100
Cc1c2c(nn1C1CC(O)C1)OCC[C@@H](C)N(C)c1nc(ncc1Cl)N2 (stereo partly drawn) [E376, 3-[(11R)-14-Chloro-4,11,12-trimethyl-8-oxa-2,5,6,12,16,17-hexaazatricyclo[11.3.1.0^3,7]heptadeca-1(16),3,6,13(17),14-pentaen-5-yl] cyclobutan-1-ol] | ≤ 100 | ≤ 100
Cc1c2c(nn1C1CCOCC1)OCC(F)(F)CNc1nc(ncc1Cl)N2 [E377, 14-Chloro-10,10-difluoro-4-methyl-5-(oxan-4-yl)-8-oxa-2,5,6,12,16,17-hexaazatricyclo[11.3.1.0^3,7]heptadeca-1(16),3,6,13(17),14-pentaene] | ≤ 100 | ≤ 100
Cc1c2c(nn1C1CC(OC(F)F)C1)OCC[C@@H](C)Nc1nc(ncc1Cl)N2 (stereo partly drawn) [E378, (11R)-14-Chloro-5-[3-(difluoromethoxy)cyclobutyl]-4,11-dimethyl-8-oxa-2,5,6,12,16,17-hexaazatricyclo[11.3.1.0^3,7] heptadeca-1(16),3,6,13(17),14-pentaene] | ≤ 100 | ≤ 100

Continued, values first:

IC50 [1] [nM] | IC50 [2] [nM] | Structure (SMILES)
≤ 100 | ≤ 100 | Cc1c2c(nn1C1COC1)OCCCNc1nc(ncc1Br)N2 [E66, 14-Bromo-4-methyl-5-(oxetan-3-yl)-8-oxa-2,5,6,12,16,17-hexaazatricyclo[11.3.1.0^3,7]heptadeca-1(16),3,6,13(17),14-pentaene]
≤ 100 | ≤ 100 | Cc1c2c(nn1C1CN(C3COC3)C1)OCC[C@@H](C)Nc1nc(ncc1Cl)N2 [E107, (11R)-14-chloro-4,11-dimethyl-5-[1-(oxetan-3-yl)azetidin-3-yl]-8-oxa-2,5,6,12,16,17-hexaazatricyclo[11.3.1.0^3,7]heptadeca-1(16),3,6,13(17),14-pentaene]
≤ 100 | ≤ 100 | Cc1c2c(nn1C1CCOCC1)OCCCCNc1nc(ncc1Cl)N2 [E109, 15-Chloro-4-methyl-5-(oxan-4-yl)-8-oxa-2,5,6,13,17,18-hexaaza tricyclo[12.3.1.0^3,7]octadeca-1(17),3,6,14(18),15-pentaene]
≤ 100 | ≤ 100 | COCCn1nc2c(c1C)Nc1ncc(Cl)c(n1)NCCCO2 [E116, 14-Chloro-5-(2-methoxyethyl)-4-methyl-8-oxa-2,5,6,12,16,17-hexaazatricyclo[11.3.1.0^3,7]heptadeca-1(16),3,6,13(17),14-pentaene]
≤ 100 | ≤ 100 | Cc1c2c(nn1C1CC(N3C[C@@H]4C[C@H]3CO4)C1)OCCCNc1nc(ncc1Cl)N2 (stereo partly drawn) [E311, 14-Chloro-4-methyl-5-{3-[(1S,4S)-2-oxa-5-azabicyclo[2.2.1]heptan-5-yl]-cyclobutyl}-8-oxa-2,5,6,12,16,17-hexaazatricyclo [11.3.1.0^3,7]heptadeca-1(16),3,6,13(17),14-pentaene]
≤ 100 | 100000 | Cc1c2c(nn1C1CC(N3CCC(F)(F)C3)C1)OCCCNc1nc(ncc1Cl)N2 (centres unmarked) [E312, 14-Chloro-5-[3-(3,3-difluoropyrrolidin-1-yl)cyclobutyl]-4-methyl-8-oxa-2,5,6,12,16,17-hexaazatricyclo[11.3.1.0^3,7] heptadeca-1(16),3,6,13(17),14-pentaene]
≤ 100 | ≤ 10000 | Cc1c2c(nn1C(=O)C1CCOCC1)OCCCNc1nc(ncc1Cl)N2 [E363, 14-Chloro-4-methyl-5-(oxane-4-carbonyl)-8-oxa-2,5,6,12,16,17-hexaazatricyclo[11.3.1.0^3,7]heptadeca-1(16),3,6,13(17),14-pentaene]
≤ 100 | ≤ 100 | Cc1c2c(nn1C1CN(C3CCOCC3)C1)OCCCNc1nc(ncc1Cl)N2 [E366, 14-Chloro-4-methyl-5-[1-(oxan-4-yl)azetidin-3-yl]-8-oxa-2,5,6,12, 16,17-hexaazatricyclo[11.3.1.0^3,7]heptadeca-1(16),3,6,13(17),14-pentaene]
≤ 100 | ≤ 100 | Cc1c2c(nn1C1CCOCC1)OCCCNc1nc(ncc1Br)N2 [E367, 14-Bromo-4-methyl-5-(oxan-4-yl)-8-oxa-2,5,6,12,16,17-hexaaza tricyclo[11.3.1.0^3,7]heptadeca-1(16),3,6,13(17),14-pentaene]
≤ 100 | ≤ 100 | Cc1c2c(nn1C1CCCOC1)OCCCNc1cc(ncc1Cl)N2 (centres unmarked) [E379, 14-Chloro-4-methyl-5-(oxan-3-yl)-8-oxa-2,5,6,12,16-pentaazatricyclo[11.3.1.0^3,7] heptadeca-1 (16),3,6,13(17),14-pentaene]
